Experimental data as given in PubChem BioAssay AID2060350 (Molecular Pharmacology Branch, DTP, NCI, 2025).
pIC50: −log10 of the molar value. Where “and” joins values, the source holds several entries; their conditions need not be identical. Equal values may be shown once. Blank lines part the entries; values can stand above or below the compound they belong to.

System: PDC 521955-158-R6-J3 spheroids, viability
Test: Anticancer human tumor 521955-158-R6-J3-PDC patient-derived pancreatic carcinoma cell line growth inhibition [TAK]
Conditions: spheroids with HUVEC and MSC; for viability, T/C: stronger effect = lower value
Excerpt: Combinatorial screen of targeted agents with TAK-243 and ipatasertib in multi-cell type tumor spheroids
A high-throughput screen of multi-cell type tumor spheroids was designed to identify active combinations of targeted small molecules and TAK-243 or ipatasertib. Complex spheroids include a stromal component modeled by human endothelial cells (HUVEC) and fibroblasts modeled by human mesenchymal stem cells (MSCs). The concentration ranges selected for each drug and investigational agent were based upon clinically achievable concentrations if the clinical Cmax of the agent was known.
Compounds. The drugs and investigational agents: TAK-243 (785004), ipatasertib (767898), everolimus (733504), selumetinib (741078), bortezomib (756655), trametinib (758246), ixazomib (758254), vemurafenib (761431), dabrafenib (764134), sapanisertib (764658), alpelisib (765974), and copanlisib (816437), were obtained from the National Cancer Institute (NCI) Developmental Therapeutics Program Chemical Repository. The FDA-approved anticancer drug set is available from the NCI Developmental Therapeutics Program. […] The stock solutions were prepared in dimethyl sulfoxide (DMSO, Sigma-Aldrich, St. Louis, MO, cat. D2650) at 800-fold the tested concentration and stored at -70 degrees C prior to their use. All drugs and investigational agents were tested over a range starting from a high concentration at or near the clinical Cmax and decreasing in half-log increments. If the clinical Cmax for an agent had not been determined, the highest concentration tested was 10 microM.
NCI60 Cell Culture. NCI60 cell lines were obtained from the NCI Developmental Therapeutics Program Tumor Repository. For each lot of cells, the Repository performed Applied Biosystems AmpFLSTR Identifiler testing with PCR amplification to confirm consistency with the published Identifier STR profile for each cell line. Cells were kept in continuous culture for no more than 20 passages. The optimal seeding densities for each of the cell lines at each time point assessed were determined prior to performing the concentration response studies. Briefly, the NCI60 human tumor lines were grown as monolayers in RPMI 1640 medium supplemented with 10% FBS and 2 mmol/L L-glutamine.
An additional 2 lines were from the NCI60 cell line panel including melanomas, MALME-3M and SK-MEL-2. Pooled donor human umbilical vein endothelial cells (HUVEC, Lonza, cat. CC-2519) and human mesenchymal stem cells (hMSC, Lonza, cat. PT-2501) were purchased from Lonza (Walkersville, MD).
PDMR cell lines were grown in complete medium (DC medium): Dulbecco's modified Eagle's medium (DMEM)/F12 supplemented with 5% fetal bovine serum (FBS), 2 mM L-glutamine, 100 U/mL penicillin and 100 µg/ml streptomycin, 0.4 µg/ml hydrocortisone, 10 ng/ml epidermal growth factor (EGF) recombinant human protein, 24 µg/mL adenine, and 0.1 mg/mL primocin. During culture from frozen stock vials, PDMR cells were cultured in the same medium containing 10 µM Y-27632 (see Table 3). The PDCs were cultured in complete DMEM/F12 media without 10 microM Y-27632 dihydrochloride for at least two passages prior to the screen. The pooled donor HUVEC and hMSC were cultured in endothelial cell growth medium 2 (PromoCell, Heidelberg, Germany, cat. C-22011) and mesenchymal stem cell growth medium 2 (PromoCell, cat. C-28009), respectively. For all experiments, HUVEC and hMSC were used at passages </=5.
For the pre-screen, cell seeding densities were determined from a titration spanning the range from 5,000 to 313 cells per well. The mct-spheroids including 60% malignant cells, 25% HUVEC and 15% MSC dispensed as a mixture into U-bottom Ultra-Low Attachment 384-well plates (Corning, NY)
High-throughput Drug Combination Screening.
Prior to their inoculation into 384-well plates, malignant cells, HUVEC, and hMSC were removed from T flasks using TrypLE express (Thermo Fisher Scientific, cat. 12605036) and harvested by centrifugation for 5 min at 233 x g. […]

[1] = curve of first compound, second compound 0.3 µM
[2] = curve of first compound, second compound 0.949 µM
[3] = curve of first compound, second compound 3 µM
[4] = curve of first compound, second compound 9.49 µM
[5] = curve of first compound, second compound 30 µM
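Also: spheroids exposed to drugs for 7 days before readout.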
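For viability, T/C in this document: 100% = DMSO vehicle control viability.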

Structure (SMILES): CC(=O)Nc1cccc(-n2c(=O)n(C3CC3)c(=O)c3c(Nc4ccc(I)cc4F)n(C)c(=O)c(C)c32)c1 + CC(C)NCC(C(=O)N1CCN(c2ncnc3c2C(C)CC3O)CC1)c1ccc(Cl)cc1
pIC50 [1]: 8.15
pIC50 [2]: 8.59
pIC50 [3]: 8.74
pIC50 [4]: 8.64
pIC50 [5]: 8.79
viability, T/C (second compound 0.3 µM, first compound 94.9 pM): 79.6%
viability, T/C (second compound 0.3 µM, first compound 0.0003 µM): 75.7%
viability, T/C (second compound 0.3 µM, first compound 0.000949 µM): 67.9%
viability, T/C (second compound 0.3 µM, first compound 0.003 µM): 58.8%
viability, T/C (second compound 0.3 µM, first compound 0.00949 µM): 46.8%
viability, T/C (second compound 0.3 µM, first compound 0.03 µM): 35.6%
viability, T/C (second compound 0.949 µM, first compound 94.9 pM): 85.6%
viability, T/C (second compound 0.949 µM, first compound 0.0003 µM): 73.7%
viability, T/C (second compound 0.949 µM, first compound 0.000949 µM): 58.5%
viability, T/C (second compound 0.949 µM, first compound 0.003 µM): 49%
viability, T/C (second compound 0.949 µM, first compound 0.00949 µM): 38.3%
viability, T/C (second compound 0.949 µM, first compound 0.03 µM): 25.2%
viability, T/C (second compound 3 µM, first compound 94.9 pM): 78.9%
viability, T/C (second compound 3 µM, first compound 0.0003 µM): 62.1%
viability, T/C (second compound 3 µM, first compound 0.000949 µM): 54.4%
viability, T/C (second compound 3 µM, first compound 0.003 µM): 49%
viability, T/C (second compound 3 µM, first compound 0.00949 µM): 37.6%
viability, T/C (second compound 3 µM, first compound 0.03 µM): 22.2%
viability, T/C (second compound 9.49 µM, first compound 94.9 pM): 77.9%
viability, T/C (second compound 9.49 µM, first compound 0.0003 µM): 62.8%
viability, T/C (second compound 9.49 µM, first compound 0.000949 µM): 53.1%
viability, T/C (second compound 9.49 µM, first compound 0.003 µM): 53.4%
viability, T/C (second compound 9.49 µM, first compound 0.00949 µM): 37.4%
viability, T/C (second compound 9.49 µM, first compound 0.03 µM): 15.2%
viability, T/C (second compound 30 µM, first compound 94.9 pM): 71.9%
viability, T/C (second compound 30 µM, first compound 0.0003 µM): 59.6%
viability, T/C (second compound 30 µM, first compound 0.000949 µM): 55.8%
viability, T/C (second compound 30 µM, first compound 0.003 µM): 47.8%
viability, T/C (second compound 30 µM, first compound 0.00949 µM): 28.5%
viability, T/C (second compound 30 µM, first compound 0.03 µM): 16.1%

pIC50 (curve of compound): < 7.00
Structure (SMILES): CC(C)n1nc(-c2ccc3oc(N)nc3c2)c2c(N)ncnc21
viability, T/C (compound 0.000316 µM): 93.6% and 99.9%
viability, T/C (compound 0.001 µM): 95% and 91.3%
viability, T/C (compound 0.00316 µM): 86% and 98.5%
viability, T/C (compound 0.01 µM): 85.3% and 94.8%
viability, T/C (compound 0.0316 µM): 83.2% and 81.7%
viability, T/C (compound 0.1 µM): 73.8% and 70.4%

Structure (SMILES): CCCS(=O)(=O)Nc1ccc(F)c(C(=O)c2c[nH]c3ncc(-c4ccc(Cl)cc4)cc23)c1F + CC(C)NCC(C(=O)N1CCN(c2ncnc3c2C(C)CC3O)CC1)c1ccc(Cl)cc1
pIC50 [1]: < 4.00
pIC50 [2]: < 4.00
pIC50 [3]: 4.19
pIC50 [4]: 4.22
pIC50 [5]: 4.66
viability, T/C (second compound 0.3 µM, first compound 0.316 µM): 143%
viability, T/C (second compound 0.3 µM, first compound 1 µM): 89.8%
viability, T/C (second compound 0.3 µM, first compound 3.16 µM): 96.1%
viability, T/C (second compound 0.3 µM, first compound 10 µM): 92.2%
viability, T/C (second compound 0.3 µM, first compound 31.6 µM): 79.8%
viability, T/C (second compound 0.3 µM, first compound 100 µM): 176%
viability, T/C (second compound 0.949 µM, first compound 0.316 µM): 98.1%
viability, T/C (second compound 0.949 µM, first compound 1 µM): 108%
viability, T/C (second compound 0.949 µM, first compound 3.16 µM): 80.6%
viability, T/C (second compound 0.949 µM, first compound 10 µM): 128%
viability, T/C (second compound 0.949 µM, first compound 31.6 µM): 79.5%
viability, T/C (second compound 0.949 µM, first compound 100 µM): 159%
viability, T/C (second compound 3 µM, first compound 0.316 µM): 93.3%
viability, T/C (second compound 3 µM, first compound 1 µM): 97.5%
viability, T/C (second compound 3 µM, first compound 3.16 µM): 81%
viability, T/C (second compound 3 µM, first compound 10 µM): 97.4%
viability, T/C (second compound 3 µM, first compound 31.6 µM): 66.6%
viability, T/C (second compound 3 µM, first compound 100 µM): 39.5%
viability, T/C (second compound 9.49 µM, first compound 0.316 µM): 94.8%
viability, T/C (second compound 9.49 µM, first compound 1 µM): 98.5%
viability, T/C (second compound 9.49 µM, first compound 3.16 µM): 78.5%
viability, T/C (second compound 9.49 µM, first compound 10 µM): 88.9%
viability, T/C (second compound 9.49 µM, first compound 31.6 µM): 87.4%
viability, T/C (second compound 9.49 µM, first compound 100 µM): 20.4%
viability, T/C (second compound 30 µM, first compound 0.316 µM): 106%
viability, T/C (second compound 30 µM, first compound 1 µM): 108%
viability, T/C (second compound 30 µM, first compound 3.16 µM): 132%
viability, T/C (second compound 30 µM, first compound 10 µM): 99.8%
viability, T/C (second compound 30 µM, first compound 31.6 µM): 20.2%
viability, T/C (second compound 30 µM, first compound 100 µM): 7.85%
